The values below are quoted from earlier work in patent US20260120816A1, “PREDICTION METHOD FOR PROTOPORPHYRINOGEN OXIDASE (PPO) INHIBITOR” (Pan Advanced Business Research, LLC, priority 2024, published 2026).

For the series the following is noted: control compound, Non Patent Literature 8.

In the case of `CC(=O)c1c(C)nn(C)c1O` [compound B, 1-(5-hydroxy-1,3-dimethyl-1H-pyrazol-4-yl)ethanone], the herbicidal activity entry was “no herbicidal activity at all”.
